Test results from PubChem BioAssay AID2060495 (Molecular Pharmacology Branch, DTP, NCI, 2025).

Tested on: 521955-158-R2-J5-PDC complex spheroid viability
Assay: Anticancer human tumor 521955-158-R2-J5-PDC patient-derived pancreatic carcinoma cell line growth inhibition [GQUAD]
Details: for IC50: curve of first compound; for viability, T/C: stronger effect = lower value
Procedure, shortened: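 Tumor cells were grown as complex spheroids with HUVEC endothelial cells and mesenchymal stem cells as stroma. G-quadruplex stabilizers were combined with targeted agents over half-log dilutions from near the clinical Cmax, or from 10 microM.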

[1] = second compound 0.0316 µM, first compound 0.0316 µM
[2] = second compound 0.0316 µM, first compound 0.1 µM
[3] = second compound 0.0316 µM, first compound 0.316 µM
[4] = second compound 0.0316 µM, first compound 1 µM
[5] = second compound 0.0316 µM, first compound 3.16 µM
[6] = second compound 0.0316 µM, first compound 10 µM
[7] = second compound 0.1 µM, first compound 0.0316 µM
[8] = second compound 0.1 µM, first compound 0.1 µM
[9] = second compound 0.1 µM, first compound 0.316 µM
[10] = second compound 0.1 µM, first compound 1 µM
[11] = second compound 0.1 µM, first compound 3.16 µM
[12] = second compound 0.1 µM, first compound 10 µM
[13] = second compound 0.316 µM, first compound 0.0316 µM
[14] = second compound 0.316 µM, first compound 0.1 µM
[15] = second compound 0.316 µM, first compound 0.316 µM
[16] = second compound 0.316 µM, first compound 1 µM
[17] = second compound 0.316 µM, first compound 3.16 µM
[18] = second compound 0.316 µM, first compound 10 µM
[19] = second compound 1 µM, first compound 0.0316 µM
[20] = second compound 1 µM, first compound 0.1 µM
[21] = second compound 1 µM, first compound 0.316 µM
[22] = second compound 1 µM, first compound 1 µM
[23] = second compound 1 µM, first compound 3.16 µM
[24] = second compound 1 µM, first compound 10 µM
[25] = second compound 3.16 µM, first compound 0.0316 µM
[26] = second compound 3.16 µM, first compound 0.1 µM
[27] = second compound 3.16 µM, first compound 0.316 µM
[28] = second compound 3.16 µM, first compound 1 µM
[29] = second compound 3.16 µM, first compound 3.16 µM
[30] = second compound 3.16 µM, first compound 10 µM
[31] = second compound 10 µM, first compound 0.0316 µM
[32] = second compound 10 µM, first compound 0.1 µM
[33] = second compound 10 µM, first compound 0.316 µM
[34] = second compound 10 µM, first compound 1 µM
[35] = second compound 10 µM, first compound 3.16 µM
[36] = second compound 10 µM, first compound 10 µM
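Further: spheroids exposed to agents for one week before reading.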
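Wherever viability, T/C is given: 100% = DMSO vehicle control viability.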

COc1ccc([C@@H](O)c2cc(-c3ncnc4cc(N5CCOCC5)ccc34)c(F)cc2Cl)nn1 + CN(C)c1ccc(Nc2c3ccc(NC(=O)CCN4CCCC4)cc3nc3cc(NC(=O)CCN4CCCC4)ccc23)cc1
IC50 (second compound 0.0316 µM): 7260 nM
IC50 (second compound 0.1 µM): 5610 nM
IC50 (second compound 0.316 µM): 6450 nM
IC50 (second compound 1 µM): 5520 nM
IC50 (second compound 3.16 µM): 2500 nM
IC50 (second compound 10 µM): 2000 nM
viability, T/C [1]: 91.8%
viability, T/C [2]: 107%
viability, T/C [3]: 91.8%
viability, T/C [4]: 78.9%
viability, T/C [5]: 68.3%
viability, T/C [6]: 43.3%
viability, T/C [7]: 94.2%
viability, T/C [8]: 96.8%
viability, T/C [9]: 92.3%
viability, T/C [10]: 83.9%
viability, T/C [11]: 60%
viability, T/C [12]: 39.9%
viability, T/C [13]: 88.9%
viability, T/C [14]: 105%
viability, T/C [15]: 106%
viability, T/C [16]: 77.8%
viability, T/C [17]: 66.5%
viability, T/C [18]: 41%
viability, T/C [19]: 87.4%
viability, T/C [20]: 101%
viability, T/C [21]: 83%
viability, T/C [22]: 72.4%
viability, T/C [23]: 59.2%
viability, T/C [24]: 41.5%
viability, T/C [25]: 66.4%
viability, T/C [26]: 83.1%
viability, T/C [27]: 74.9%
viability, T/C [28]: 73.7%
viability, T/C [29]: 44%
viability, T/C [30]: 28.8%
viability, T/C [31]: 59.8%
viability, T/C [32]: 55.6%
viability, T/C [33]: 71.3%
viability, T/C [34]: 54.9%
viability, T/C [35]: 45.1%
viability, T/C [36]: 16.7%

Nc1ccn(C2OC(CO)C(O)C2(F)F)c(=O)n1 (stereo not given) + Cc1cnc(CNC(=O)c2c(=O)c3ccc(N4CCCN(C)CC4)nc3n3c2sc2ccccc23)cn1
IC50 (second compound 0.0316 µM): 159 nM
IC50 (second compound 0.1 µM): 85.7 nM
IC50 (second compound 0.316 µM): < 31.6 nM
IC50 (second compound 1 µM): < 31.6 nM
IC50 (second compound 3.16 µM): < 31.6 nM
IC50 (second compound 10 µM): < 31.6 nM
viability, T/C [1]: 67.4%
viability, T/C [2]: 63.6%
viability, T/C [3]: 30.6%
viability, T/C [4]: 12.9%
viability, T/C [5]: 8.38%
viability, T/C [6]: 8.43%
viability, T/C [7]: 57.4%
viability, T/C [8]: 51.2%
viability, T/C [9]: 29%
viability, T/C [10]: 20.9%
viability, T/C [11]: 7.8%
viability, T/C [12]: 7.55%
viability, T/C [13]: 36%
viability, T/C [14]: 27.7%
viability, T/C [15]: 20.9%
viability, T/C [16]: 12.8%
viability, T/C [17]: 9.07%
viability, T/C [18]: 7.49%
viability, T/C [19]: 20.2%
viability, T/C [20]: 19.9%
viability, T/C [21]: 15.2%
viability, T/C [22]: 9.52%
viability, T/C [23]: 9.75%
viability, T/C [24]: 8.51%
viability, T/C [25]: 16%
viability, T/C [26]: 17.8%
viability, T/C [27]: 15.9%
viability, T/C [28]: 8.29%
viability, T/C [29]: 4.92%
viability, T/C [30]: 2.37%
viability, T/C [31]: 17%
viability, T/C [32]: 15.7%
viability, T/C [33]: 15.1%
viability, T/C [34]: 6.25%
viability, T/C [35]: 4.12%
viability, T/C [36]: 5.49%

CC(C)(O)C1CCC(Nc2ccc3ncc(-c4cccc(C(F)(F)F)c4)n3n2)CC1 (stereo not given) + CN(C)c1ccc(Nc2c3ccc(NC(=O)CCN4CCCC4)cc3nc3cc(NC(=O)CCN4CCCC4)ccc23)cc1
IC50 (second compound 0.0316 µM): 2060 nM
IC50 (second compound 0.1 µM): 2010 nM
IC50 (second compound 0.316 µM): 2050 nM
IC50 (second compound 1 µM): 2010 nM
IC50 (second compound 3.16 µM): 1800 nM
IC50 (second compound 10 µM): 1280 nM
viability, T/C [1]: 102%
viability, T/C [2]: 107%
viability, T/C [3]: 105%
viability, T/C [4]: 111%
viability, T/C [5]: 13.1%
viability, T/C [6]: 19.7%
viability, T/C [7]: 101%
viability, T/C [8]: 103%
viability, T/C [9]: 98.5%
viability, T/C [10]: 117%
viability, T/C [11]: 10.4%
viability, T/C [12]: 18.7%
viability, T/C [13]: 106%
viability, T/C [14]: 88%
viability, T/C [15]: 113%
viability, T/C [16]: 113%
viability, T/C [17]: 16.1%
viability, T/C [18]: 17.5%
viability, T/C [19]: 95.4%
viability, T/C [20]: 107%
viability, T/C [21]: 95.8%
viability, T/C [22]: 116%
viability, T/C [23]: 15.1%
viability, T/C [24]: 13.6%
viability, T/C [25]: 82%
viability, T/C [26]: 87.3%
viability, T/C [27]: 79.2%
viability, T/C [28]: 99.5%
viability, T/C [29]: 13.8%
viability, T/C [30]: 15%
viability, T/C [31]: 70.4%
viability, T/C [32]: 73.1%
viability, T/C [33]: 64.6%
viability, T/C [34]: 62.2%
viability, T/C [35]: 6.61%
viability, T/C [36]: 1.12%

O=c1[nH]cc(F)c(=O)[nH]1 + Cc1cnc(CNC(=O)c2c(=O)c3ccc(N4CCCN(C)CC4)nc3n3c2sc2ccccc23)cn1
IC50 (second compound 0.0316 µM): 1190 nM
IC50 (second compound 0.1 µM): 1540 nM
IC50 (second compound 0.316 µM): < 31.6 nM
IC50 (second compound 1 µM): < 31.6 nM
IC50 (second compound 3.16 µM): < 31.6 nM
IC50 (second compound 10 µM): < 31.6 nM
viability, T/C [1]: 88.7%
viability, T/C [2]: 70.5%
viability, T/C [3]: 76.8%
viability, T/C [4]: 51.6%
viability, T/C [5]: 31.6%
viability, T/C [6]: 16.7%
viability, T/C [7]: 65.2%
viability, T/C [8]: 56.2%
viability, T/C [9]: 56.5%
viability, T/C [10]: 62.2%
viability, T/C [11]: 33.4%
viability, T/C [12]: 22.4%
viability, T/C [13]: 36.7%
viability, T/C [14]: 56.3%
viability, T/C [15]: 30.3%
viability, T/C [16]: 31%
viability, T/C [17]: 20.2%
viability, T/C [18]: 17.8%
viability, T/C [19]: 23.2%
viability, T/C [20]: 22.5%
viability, T/C [21]: 20.1%
viability, T/C [22]: 16.6%
viability, T/C [23]: 17.8%
viability, T/C [24]: 14.1%
viability, T/C [25]: 18.1%
viability, T/C [26]: 19.5%
viability, T/C [27]: 17.8%
viability, T/C [28]: 19.1%
viability, T/C [29]: 17%
viability, T/C [30]: 11.7%
viability, T/C [31]: 18.7%
viability, T/C [32]: 21.7%
viability, T/C [33]: 17.3%
viability, T/C [34]: 14.2%
viability, T/C [35]: 15.5%
viability, T/C [36]: 12.1%

COc1ccc([C@@H](O)c2cc(-c3ncnc4cc(N5CCOCC5)ccc34)c(F)cc2Cl)nn1 + Cc1[nH]c2ccc(F)cc2c1-c1nc2c3cccnc3c3ncccc3c2[nH]1
IC50 (second compound 0.0316 µM): 3520 nM
IC50 (second compound 0.1 µM): 2690 nM
IC50 (second compound 0.316 µM): 3700 nM
IC50 (second compound 1 µM): 3670 nM
IC50 (second compound 3.16 µM): 1960 nM
IC50 (second compound 10 µM): 3080 nM
viability, T/C [1]: 93%
viability, T/C [2]: 92.3%
viability, T/C [3]: 73.7%
viability, T/C [4]: 62.3%
viability, T/C [5]: 56%
viability, T/C [6]: 34.5%
viability, T/C [7]: 88.6%
viability, T/C [8]: 93%
viability, T/C [9]: 69.7%
viability, T/C [10]: 66.7%
viability, T/C [11]: 47.1%
viability, T/C [12]: 34.1%
viability, T/C [13]: 82.3%
viability, T/C [14]: 95.6%
viability, T/C [15]: 83.2%
viability, T/C [16]: 68.6%
viability, T/C [17]: 54.3%
viability, T/C [18]: 34.9%
viability, T/C [19]: 88.4%
viability, T/C [20]: 112%
viability, T/C [21]: 88.5%
viability, T/C [22]: 66.6%
viability, T/C [23]: 58.4%
viability, T/C [24]: 32.2%
viability, T/C [25]: 86.1%
viability, T/C [26]: 90.5%
viability, T/C [27]: 75.9%
viability, T/C [28]: 60.4%
viability, T/C [29]: 43.3%
viability, T/C [30]: 32.2%
viability, T/C [31]: 99.4%
viability, T/C [32]: 88.6%
viability, T/C [33]: 74.9%
viability, T/C [34]: 64.3%
viability, T/C [35]: 54.6%
viability, T/C [36]: 30.4%
